Data from PubChem BioAssay AID1259411 (Chemical Carcinogenesis Research Information System (CCRIS), 2018).
Activity calls are given as the source filed them. How the calls were made is not given here.

Tested on: rodent carcinogenicity bioassays, tumor incidence
Assay: CCRIS carcinogenicity studies
Method in brief: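 NCI-built, expert-reviewed records of carcinogenicity and related test outcomes (mutagenicity, tumor promotion/inhibition) compiled from published and report sources, historical span 1985-2011, not updated.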

With `Cc1c(C(=O)O)c(O)cc2c1C(=O)c1c(O)c([C@@H]3O[C@@H](CO)[C@H](O)[C@@H](O)[C@H]3O)c(O)c(O)c1C2=O` the carcinogen call (Species: RAT, Strain/Sex: WISTAR/FEMALE, Route: ORAL, Dose: 0, 50, 150, 500 MG/KG/D IN BASAL DIET TO PUPS OF PARENTS GIVEN THE SAME DIETARY DOSE LEVELS FOR 60 D PRIOR TO MATING AND, Dose: 0, 50, 150, 500 MG/KG/D IN BASAL DIET TO PUPS OF PARENTS GIVEN THE SAME DIETARY DOSE LEVELS FOR 60 D PRIOR TO MATING AND) was “inactive; negative” and the carcinogen call (Species: RAT, Strain/Sex: WISTAR/MALE, Route: ORAL, Dose: 0, 50, 150, 500 MG/KG/D IN BASAL DIET TO PUPS OF PARENTS GIVEN THE SAME DIETARY DOSE LEVELS FOR 60 D PRIOR TO MATING AND, Dose: 0, 50, 150, 500 MG/KG/D IN BASAL DIET TO PUPS OF PARENTS GIVEN THE SAME DIETARY DOSE LEVELS FOR 60 D PRIOR TO MATING AND) was “inactive; negative”.

In the case of `Oc1c(Cl)cc(Cl)cc1Cl`, the carcinogen call (Species: MOUSE, Strain/Sex: B6C3F1/FEMALE, Route: ORAL, Dose: 0, 5214, 10428 PPM IN DIET, Dose: 0, 5214, 10428 PPM IN DIET, Tumor Site: Type of Lesion: LIVER: HEPATOCELLULAR CARCINOMA OR ADENOMA) is reported as “active; positive”, the carcinogen call (Species: MOUSE, Strain/Sex: B6C3F1/MALE, Route: ORAL, Dose: 0, 5000, 10000 PPM IN DIET, Dose: 0, 5000, 10000 PPM IN DIET, Tumor Site: Type of Lesion: LIVER: HEPATOCELLULAR CARCINOMA OR ADENOMA) is reported as “active; positive” and the carcinogen call (Species: RAT, Strain/Sex: F344/FEMALE, Route: ORAL, Dose: 0, 5000, 10000 PPM IN DIET, Dose: 0, 5000, 10000 PPM IN DIET) is reported as “inactive; negative”. The carcinogen call (Species: RAT, Strain/Sex: F344/MALE, Route: ORAL, Dose: 0, 5000, 10000 PPM IN DIET, Dose: 0, 5000, 10000 PPM IN DIET, Tumor Site: Type of Lesion: HEMATOPOIETIC SYSTEM (LEUKEMIA): MONOCYTIC LEUKEMIA, LYMPHATIC SYSTEM: LYMPHOMA) was “active; positive”.

In the case of `CCNc1nc(Cl)nc(NC(C)(C)C#N)n1`, the carcinogen call (Species: Mouse, Strain/Sex: CD/Female (50 per group; 100 per group for controls), Route: Oral, Dose: 0, 10, 25, 1,000 ppm of 98% pure cyanazine in feed for two yr, Dose: 0, 10, 25, 1,000 ppm of 98% pure cyanazine in feed for two yr) is reported as “inactive; negative”, the carcinogen call (Species: Mouse, Strain/Sex: CD/Male (50 per group; 100 per group for controls), Route: Oral, Dose: 0, 10, 25, 1,000 ppm of 98% pure cyanazine in feed for two yr, Dose: 0, 10, 25, 1,000 ppm of 98% pure cyanazine in feed for two yr) is reported as “inactive; negative” and the carcinogen call (Species: RAT, Strain/Sex: CRL:CD BR/FEMALE, Route: ORAL, Dose: 0, 1, 5, 25, 50 PPM FOR 104 WK (STUDY DURATION: 104 WK), Dose: 0, 1, 5, 25, 50 PPM FOR 104 WK (STUDY DURATION: 104 WK)) is reported as “inactive; negative”.

`C#C[C@]1(OC(C)=O)CC[C@H]2[C@@H]3CCC4=CC(=O)CC[C@@H]4[C@H]3CC[C@@]21C` was tested, and the carcinogen call (Species: MOUSE, Route: ORAL, Tumor Site: Type of Lesion: LIVER, PITUITARY GLAND) was “active; positive” and the carcinogen call (Species: RAT, Route: ORAL, Tumor Site: Type of Lesion: LIVER) was “active; positive”.

For `Cc1cc(-c2ccccc2C)ccc1N`, the carcinogen call (Species: HAMSTER, Strain/Sex: SYRIAN/FEMALE, Route: SUBCUTANEOUS, Dose: 0, 100 MG/KG BW 1/WK FOR 20 WK (STUDY DURATION: 50 WK), Tumor Site: Type of Lesion: URINARY BLADDER: CARCINOMA) was “active; positive”, the carcinogen call (Species: HAMSTER, Strain/Sex: SYRIAN/FEMALE, Route: SUBCUTANEOUS, Dose: 0.15 MMOL/KG IN PEANUT OIL 1/WK FOR 37 WK (TOTAL DOSE: 5.6 MMOL/KG), Tumor Site: Type of Lesion: URINARY BLADDER: TRANSITIONAL CELL CARCINOMA, SQUAMOUS CELL CARCINOMA) was “active; positive” and the carcinogen call (Species: HAMSTER, Strain/Sex: SYRIAN/MALE,FEMALE, Route: SUBCUTANEOUS, Dose: 100 MG/KG 1/WK FOR 52 WK, Tumor Site: Type of Lesion: URINARY BLADDER: PAPILLOMA, CARCINOMA) was “active; positive”. For the same compound, the carcinogen call (Species: HAMSTER, Strain/Sex: SYRIAN/MALE, Route: SUBCUTANEOUS, Dose: 0, 100 MG/KG BW 1/WK FOR 20 WK (STUDY DURATION: 50 WK), Tumor Site: Type of Lesion: URINARY BLADDER: CARCINOMA) was “active; positive”, the carcinogen call (Species: HAMSTER, Strain/Sex: SYRIAN/MALE, Route: SUBCUTANEOUS, Dose: 0, 100 MG/KG IN PEANUT OIL 1/WK FOR 8 WK, THEN ONCE EVERY 2 WK FOR 18 MO (TOTAL MAXIMUM DOSE: 555 MG), Tumor Site: Type of Lesion: URINARY BLADDER: TRANSITIONAL CELL CARCINOMA, FORESTOMACH: SQUAMOUS CELL PAPILLOMA, INTESTINES (SMALL): ADENOCARCINOMA;, Tumor Site: Type of Lesion: URINARY BLADDER: TRANSITIONAL CELL CARCINOMA, FORESTOMACH: SQUAMOUS CELL PAPILLOMA, INTESTINES (SMALL): ADENOCARCINOMA) was “active; positive” and the carcinogen call (Species: HAMSTER, Strain/Sex: SYRIAN/MALE, Route: SUBCUTANEOUS, Dose: 0.15 MMOL/KG IN PEANUT OIL 1/WK FOR 37 WK (TOTAL DOSE: 5.6 MMOL/KG), Tumor Site: Type of Lesion: URINARY BLADDER: TRANSITIONAL CELL CARCINOMA) was “active; positive”. For the same compound, the carcinogen call (Species: RAT, Strain/Sex: ALBINO/MALE, Route: SUBCUTANEOUS, Dose: 2.8-3.5 G/KG, Tumor Site: Type of Lesion: INTESTINES, SALIVARY GLAND, EAR (DUCT), Tumor Site: Type of Lesion: INTESTINES, SALIVARY GLAND, EAR (DUCT)) was “active; positive”, the carcinogen call (Species: RAT, Strain/Sex: F344/MALE, Route: SUBCUTANEOUS, Dose: 0, 150 MG/KG 1/WK FOR 3 WK FOLLOWED BY HIGH FAT DIET (20% CORN OIL) BEGINNING 12 WK POST LAST CARCINOGEN DOSE AND CONTIN, Tumor Site: Type of Lesion: PANCREAS: ADENOMA OR CARCINOMA) was “active; positive” and the carcinogen call (Species: RAT, Strain/Sex: F344/MALE, Route: SUBCUTANEOUS, Dose: 0, 150 MG/KG 1/WK FOR 3 WK FOLLOWED BY NORMAL FAT DIET (4.5% CORN OIL) BEGINNING 12 WK POST LAST CARCINOGEN DOSE AND CON, Tumor Site: Type of Lesion: PANCREAS: ADENOMA OR CARCINOMA) was “active; positive”. The carcinogen call (Species: RAT, Strain/Sex: F344/MALE, Route: SUBCUTANEOUS, Dose: 20 MG/KG 1/WK FOR 42 WK OR 50 MG/KG 1/WK FOR 20 WK, Tumor Site: Type of Lesion: PROSTATE GLAND: CARCINOMA (IN SITU)) was “active; positive”, the carcinogen call (Species: RAT, Strain/Sex: WISTAR/FEMALE, Route: SUBCUTANEOUS, Dose: 2 MG/100 G 5/WK FOR 12 WK, Tumor Site: Type of Lesion: MAMMARY GLAND: CARCINOMA) was “active; positive” and the carcinogen call (Species: RAT, Strain/Sex: WISTAR/MALE,FEMALE, Route: SUBCUTANEOUS, Dose: 2 MG/100 G 5/WK FOR LIFE, Tumor Site: Type of Lesion: INTESTINES (LARGE): POLYPLOID TUMOR (MULTIPLE)) was “active; positive”.

`O=C1c2ccccc2-c2ccc3c4c(ccc1c24)-c1ccccc1C3=O` was tested, and the carcinogen call (Species: MOUSE, Strain/Sex: B6C3F1/FEMALE, Route: ORAL, Dose: 0, 12500, 25000 PPM IN DIET, Dose: 0, 12500, 25000 PPM IN DIET) was “inactive; negative”, the carcinogen call (Species: MOUSE, Strain/Sex: B6C3F1/MALE, Route: ORAL, Dose: 0, 25000, 50000 PPM IN DIET, Dose: 0, 25000, 50000 PPM IN DIET, Tumor Site: Type of Lesion: LYMPHATIC SYSTEM: LYMPHOMA, LIVER: HEPATOCELLULAR CARCINOMA) was “active; positive” and the carcinogen call (Species: RAT, Strain/Sex: F344/FEMALE, Route: ORAL, Dose: 0, 3500, 7000 PPM IN DIET, Dose: 0, 3500, 7000 PPM IN DIET) was “inactive; negative”. For the same compound, the carcinogen call (Species: RAT, Strain/Sex: F344/MALE, Route: ORAL, Dose: 0, 3500, 7000 PPM IN DIET, Dose: 0, 3500, 7000 PPM IN DIET) was “inactive; negative”.
